{"source": "paper PMC10974768", "about": "(Toxins, 2024)", "key": {"[1]": {"conditions": "in vivo, 5 mg/kg; cited from earlier work"}, "[2]": {"test_system": "CYP450 in chicken liver microsomes", "assay": "in vitro", "conditions": "read-out: IC50 values in chicken liver microsomes (all CYP450 isoforms tested)", "experimental": "(§1) A cocktail-approach for elucidating the metabolites profiling and CYP450 inhibition was conducted as in Lin et al. with minor changes. The incubation mixture contained 50 μL of 0.2 mg/mL of CLM, 10 μL of 0.1 M phosphate buffer (pH 7.4), 40 μL of 1 mM NADPH and six probe substrates with a total volume of 200 μL. The specific probe substrates used for each CYP450 isoenzyme in the incubation mixture were as follows: PH (CYP1A2), BP (CYP2B6), CLN (CYP2E1), TBD (CYP2C9), CAN (CYP2A6), and MDZ (CYP3A4). Probes substrates were dissolved in methanol as stock solution (1 mg/mL). All of them were diluted to the final concentrations (see Supplemental Materials) with incubation buffer and the percentage of organic solvent in the final incubation volume was below 1% (v/v). Briefly, the mixture was preincubated in a thermoshaker (Biosan, Geraardsbergen, Belgium) for 5 min at 37 °C prior to the initiation of the reaction with NADPH.4Na. After incubation, the mixture was terminated by 400 μL ice-cold acetonitrile. […] A volume of 5 µL of supernatant was analysed using UHPLC-MS/MS."}, "CYP2A6 [3]": {"test_system": "CYP2A6", "assay": "in vitro", "conditions": "read-out: IC50 for CYP2A6", "experimental": "as §1"}, "[4]": {"conditions": "rat, in vivo, po, cited from earlier work"}, "broilers": {"test_system": "broilers", "conditions": "in vivo"}, "[5]": {"conditions": "in vivo, po; cited from earlier work"}, "[6]": {"set-up": "species or system broiler chickens (Ross 308)", "conditions": "in vivo"}, "[7]": {"conditions": "in vivo, cited from earlier work"}, "CYP2A6 [8]": {"test_system": "CYP2A6", "conditions": "read-out: Km of CYP2A6; turkey; CAN as substrate; cited from earlier work"}, "[9]": {"test_system": "CYP1A2 (PH), CYP2B6 (BP), CYP2E1 (CLN), CYP2C9 (TBD), CYP2A6 (CAN), CYP3A4 (MDZ)", "assay": "in vitro", "conditions": "chicken, pH 7.4", "experimental": "as §1, with “The incubation mixture contained 50 μL of 0.2 mg/mL of CLM, 10 μL of 0.1 M phosphate buffer (pH 7.4), 40 μL of 1 mM NADPH and six probe substrates with a total volume of 200 μL. The specific probe substrates used for each CYP450 isoenzyme in the incubation mixture were as follows: PH (CYP1A2), BP (CYP2B6), CLN (CYP2E1), TBD (CYP2C9), CAN (CYP2A6), and MDZ (CYP3A4).” left out\n(§2) Enzyme kinetic studies were conducted for the six CYP450-related probes reactions. For each probe, the maximum rate of the Vmax and Km were obtained using GraphPad Prism v.8.0.2 software via Michaelis-Menten Kinetic model (La Jolla, CA, USA). The incubation times of 5, 10, 15, 30, 45 and 60 min were tested individually. A series of protein concentrations (0.05, 0.1, 0.2, 0.4, 0.6, 0.8 and 1 mg/mL) of CLM in the incubation mixture were conducted. Triplicate analyses were performed for each incubation system."}, "[10]": {"test_system": "chicken liver microsomes (CYP450)", "assay": "in vitro", "experimental": "as §1, with “The incubation mixture contained 50 μL of 0.2 mg/mL of CLM, 10 μL of 0.1 M phosphate buffer (pH 7.4), 40 μL of 1 mM NADPH and six probe substrates with a total volume of 200 μL. The specific probe substrates used for each CYP450 isoenzyme in the incubation mixture were as follows: PH (CYP1A2), BP (CYP2B6), CLN (CYP2E1), TBD (CYP2C9), CAN (CYP2A6), and MDZ (CYP3A4).” left out\nas §2"}, "CYP1A2, CYP3A4": {"test_system": "CYP1A2, CYP3A4", "conditions": "cited from earlier work"}}, "note": "Values joined by “and” are separate entries in the source; they are usually repeats but may differ in a detail not shown here. Equal entries are not always repeated. Where two headings read alike, the source gives them in different places."}
{"smiles": "COc1cc2c(c3oc(=O)c4c(c13)CCC4=O)[C@@H]1C=CO[C@@H]1O2", "note": "[AFB1, aflatoxin B1]", "values": [{"measurement": "time for depletion in chicken liver, kidney, and muscle", "setting": "[1]", "value": "10 to 19", "unit": "days"}, {"measurement": "IC50", "setting": "[2]", "value": "> 7.6", "unit": "µM"}, {"measurement": "IC50", "setting": "CYP2A6 [3]", "value": 24.1, "unit": "µM"}, {"measurement": "AUC0–24", "setting": "[4]; 1 mg/kg", "value": "45.59 ± 17.19", "unit": "ng·h/mL"}, {"measurement": "CL", "setting": "[4]; 1 mg/kg", "value": "372.2 ± 163", "unit": "mL/min/kg"}, {"measurement": "Cmax", "setting": "[4]; 1 mg/kg", "value": "93.42 ± 23.01 ng/mL and 90 ± 20 ng/mL"}, {"measurement": "Tmax", "setting": "[4]; 1 mg/kg", "value": "about 0.15 h"}, {"measurement": "Vd", "setting": "[4]; 1 mg/kg", "value": "226.46 ± 100.76", "unit": "L/kg"}, {"measurement": "T1/2e", "setting": "[4]", "value": 7.62, "unit": "h"}, {"measurement": "adverse health effects in broilers", "setting": "broilers", "value": "No significant adverse health effects"}, {"measurement": "Cmax", "setting": "[5]", "value": "3.8 ± 0.9", "unit": "ng/mL"}, {"measurement": "MRT", "setting": "[5]", "value": "11.73 ± 0.94", "unit": "h"}, {"measurement": "T1/2e", "setting": "[5]", "value": "15.52 ± 0.51", "unit": "h"}, {"measurement": "Tmax", "setting": "[5]", "value": "0.58 ± 0.17", "unit": "h"}, {"measurement": "AUCINF_obs, Control", "setting": "[6]", "value": "94.2 ± 40.4 ** h·ng/mL"}, {"measurement": "AUCINF_obs, Treatment", "setting": "[6]", "value": "265.8 ± 222.9", "unit": "ng·h/mL"}, {"measurement": "AUClast, Control", "setting": "[6]", "value": "87.5 ± 39.6 ** h·ng/mL"}, {"measurement": "AUClast, Treatment", "setting": "[6]", "value": "170 ± 103.6", "unit": "ng·h/mL"}, {"measurement": "CL_F_obs, Control", "setting": "[6]", "value": "238 ± 112", "unit": "mL/min/kg"}, {"measurement": "CL_F_obs, Treatment", "setting": "[6]", "value": "157 ± 108", "unit": "mL/min/kg"}, {"measurement": "Cmax, Control", "setting": "[6]", "value": "29.3 ± 3.2", "unit": "ng/mL"}, {"measurement": "MRTlast, Control", "setting": "[6]", "value": "4.7 ± 0.7", "unit": "h"}, {"measurement": "MRTlast, Treatment", "setting": "[6]", "value": "6.4 ± 3.2", "unit": "h"}, {"measurement": "T1/2λz, Treatment", "setting": "[6]", "value": "1.4 ± 0.5", "unit": "h"}, {"measurement": "Tmax, Treatment", "setting": "[6]", "value": "0.3 ± 0.1", "unit": "h"}, {"measurement": "Vd_F_obs, Control", "setting": "[6]", "value": "14.8 ± 4.8", "unit": "L/kg"}, {"measurement": "Vd_F_obs, Treatment", "setting": "[6]", "value": "18.4 ± 7.7", "unit": "L/kg"}, {"measurement": "increase of AUClast of AFB1 by TIA", "setting": "[6]", "value": 194, "unit": "%"}, {"measurement": "increase of mean residence time (MRT) of AFB1 by TIA", "setting": "[6]", "value": 136, "unit": "%"}, {"measurement": "AUC0–t", "setting": "[7]; human", "value": "0.0256 ± 0.0063", "unit": "ng·h/mL"}, {"measurement": "T1/2β", "setting": "[7]; human", "value": 64.4, "unit": "h"}, {"measurement": "Tmax", "setting": "[7]; human", "value": "1.02 ± 0.31", "unit": "h"}, {"measurement": "T1/2α", "setting": "[7]", "value": 2.86, "unit": "h"}]}
{"smiles": "O=c1ccc2ccccc2o1", "note": "[Coumarin]", "values": [{"measurement": "Km", "setting": "CYP2A6 [8]", "value": "33.6 ± 8.52", "unit": "µM"}, {"measurement": "Km", "setting": "[9]; broiler", "value": 56.1, "unit": "µM"}, {"measurement": "Km", "setting": "[9]", "value": 56.1, "unit": "µM"}, {"measurement": "Vmax", "setting": "[10]; chicken liver microsomes, Michaelis-Menten, PH (CYP1A2), BP (CYP2B6), CLN (CYP2E1), TBD (CYP2C9), CAN (CYP2A6), MDZ (CYP3A4), n = 3", "value": 190.8, "unit": "nmol/min/mg"}]}
{"smiles": "Cc1ncc2n1-c1ccc(Cl)cc1C(c1ccccc1F)=NC2", "note": "[Midazolam]", "values": [{"measurement": "Km", "setting": "[9]; broiler", "value": 3.3, "unit": "µM"}, {"measurement": "Km", "setting": "[9]", "value": 3.31, "unit": "µM"}, {"measurement": "Vmax", "setting": "[10]", "value": 37.7, "unit": "nmol/min/mg"}]}
{"smiles": "CCOc1ccc(NC(C)=O)cc1", "note": "[Phenacetin]", "values": [{"measurement": "Km", "setting": "CYP1A2, CYP3A4", "value": "98.1 ± 18.6", "unit": "µM"}, {"measurement": "Km", "setting": "[9]; broiler", "value": 20.7, "unit": "µM"}, {"measurement": "Km", "setting": "[9]", "value": 20.7, "unit": "µM"}, {"measurement": "Vmax", "setting": "[10]", "value": 63.1, "unit": "nmol/min/mg"}]}
{"smiles": "CCCCNC(=O)NS(=O)(=O)c1ccc(C)cc1", "note": "[Tolbutamide]", "values": [{"measurement": "Vmax", "setting": "[10]", "value": 159.4, "unit": "nmol/min/mg"}]}
